The record followed here is PMC8449059, “Structural and functional variation of chitin-binding domains of a lytic polysaccharide monooxygenase from Cellvibrio japonicus” (The Journal of Biological Chemistry, 2021).

This assay has as its target T1, CjCBM5 (family 5 carbohydrate-binding module of CjLPMO10A) (Cellvibrio japonicus, UniProt B3PJ79).
T1 construct: gene cbp33A; isolated CBM5 domain, residues 251-309 of 397; extra N-terminal Met, C-terminal Ala + 6xHis tag kept; 15N-labelled; E. coli cytoplasmic expression (pNIC-CH)
Briefly: NMR titration, […]-HSQC chemical shift perturbation. Conditions: 50 mM sodium phosphate, pH 7.0, 10% D2O; 70 uM 15N-labelled protein; average of W283, T284, Q285, Y296, G297.

In general, Kd refers to the concentration at which binding is half-saturated.

T1 sequence (B3PJ79 entry or part of it): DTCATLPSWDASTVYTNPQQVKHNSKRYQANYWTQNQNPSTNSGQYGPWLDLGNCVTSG

Consider `CC(=O)N[C@H]1[C@H](O[C@H]2[C@H](O)[C@@H](NC(C)=O)C(O[C@H]3[C@H](O)[C@@H](NC(C)=O)C(O[C@H]4[C@H](O)[C@@H](NC(C)=O)C(O[C@H]5[C@H](O)[C@@H](NC(C)=O)C(O[C@H]6[C@H](O)[C@@H](NC(C)=O)C(O)O[C@@H]6CO)O[C@@H]5CO)O[C@@H]4CO)O[C@@H]3CO)O[C@@H]2CO)O[C@H](CO)[C@@H](O)[C@@H]1O` (stereo partly shown) [chitohexaose], for which the dissociation constant (Kd) worked out at 2000 ± 1000 µM.
